Data from ChEMBL document CHEMBL4665675 (J Med Chem, 2020).

Key:
[1] = Antiproliferative activity against human ALL5 cells incubated for 120 hrs by MTT assay; type: functional, cell-based; details: ALL5, 120 h
[2] = system: LoVo; assay: Antiproliferative activity against human LoVo cells incubated for 72 hrs by sulforhodamine B assay; type: functional, cell-based
[3] = system: MCF7; assay: Antiproliferative activity against human MCF7 cells incubated for 72 hrs by sulforhodamine B assay; type: functional, cell-based; details: MCF7, 72 h
[4] = system: A549; assay: Antiproliferative activity against human A549 cells incubated for 72 hrs by sulforhodamine B assay; type: functional, cell-based; details: A549, 72 h
[5] = system: BALB/3T3; assay: Cytotoxicity against mouse BALB/3T3 cells incubated for 72 hrs by sulforhodamine B assay; type: cell-based; details: BALB/3T3, 72 h
[6] = Antiproliferative activity against human LoVo/DX cells incubated for 72 hrs by sulforhodamine B assay; type: functional, cell-based
[7] = system: P388; assay: Antiproliferative activity against mouse P388 cells incubated for 72 hrs by Coulter counter method; type: functional, cell-based; details: P388, 72 h
[8] = system: CCRF-CEM; assay: Cytotoxicity against human CEM cells incubated for 48 to 72 hrs by Cell Titer 96 aqueous one solution cell proliferation assay; type: functional, cell-based
[9] = system: MCF7; assay: Cytotoxicity against human MCF7 cells; type: functional, cell-based
[10] = system: A2780; assay: Cytotoxicity against human A2780 cells; type: functional, cell-based
[11] = system: A549; assay: Cytotoxicity against human A549 cells; type: functional, cell-based
[12] = system: Bel-7402; assay: Cytotoxicity against human BEL7402 cells; type: functional, cell-based
[13] = system: HeLa; assay: Cytotoxicity against human HeLa cells after 24 to 72 hrs by Cell Titer Blue assay; type: cell-based

Structure (SMILES): COc1c(Cl)c2c(c(OC)c1OC)-c1ccc(SC)c(=O)cc1[C@@H](NC(=O)c1ccccc1)CC2
- IC50 [1]: 0.007 µM
- IC50 [2]: 0.007 µM
- IC50 [3]: 0.007 µM
- IC50 [4]: 0.007 µM
- IC50 [5]: 0.007 µM
- IC50 [6]: 0.007 µM

Structure (SMILES): COc1cc2c(c(OC)c1OC)-c1ccc(NCC(C)C)c(=O)cc1[C@@H](NC(C)=O)CC2
- IC50 [7]: 0.32 µM

Structure (SMILES): CCOc1c(OC)c(OC)cc2c1-c1ccc(OC)c(=O)cc1[C@@H](NC(C)=O)CC2
- IC50 [8]: 0.012 µM

Structure (SMILES): COc1cc2c(c(OCc3ccc(Cl)cc3)c1OC)-c1ccc(OC)c(=O)cc1[C@@H](NC(C)=O)CC2
- IC50 [8]: 0.012 µM

Structure (SMILES): COc1c(Cl)c2c(c(OC)c1OC)-c1ccc(SC)c(=O)cc1[C@@H](NC(C)=O)CC2
- IC50 [2]: 0.022 µM
- IC50 [3]: 0.022 µM
- IC50 [4]: 0.022 µM
- IC50 [5]: 0.022 µM
- IC50 [6]: 0.111 µM

Structure (SMILES): COc1c(Cl)c2c(c(OC)c1OC)-c1ccc(SC)c(=O)cc1[C@@H](NC(=O)OCC(F)(F)F)CC2
- IC50 [2]: 0.007 µM
- IC50 [3]: 0.007 µM
- IC50 [4]: 0.007 µM
- IC50 [5]: 0.007 µM
- IC50 [6]: 0.007 µM

Structure (SMILES): COc1cc2c(c(OC)c1OC)-c1ccc(NCCOC(=O)CCC(=O)OCCO[N+](=O)[O-])c(=O)cc1[C@@H](NC(C)=O)CC2
- IC50 [9]: 0.04 µM
- IC50 [10]: 0.02 µM
- IC50 [11]: 0.04 µM
- IC50 [12]: 0.04 µM

Structure (SMILES): COc1c(Cl)c2c(c(OC)c1OC)-c1ccc(SC)c(=O)cc1[C@@H](NC(=O)C(C)C)CC2
- IC50 [1]: 0.002 µM
- IC50 [2]: 0.002 µM
- IC50 [3]: 0.002 µM
- IC50 [4]: 0.002 µM
- IC50 [5]: 0.002 µM
- IC50 [6]: 0.002 µM

Structure (SMILES): COc1cc2c(c(OC)c1OC)-c1ccc(NCCOC(=O)CCC(=O)Oc3ccc(CO[N+](=O)[O-])cc3)c(=O)cc1[C@@H](NC(C)=O)CC2
- IC50 [9]: 0.017 µM
- IC50 [10]: 0.02 µM
- IC50 [11]: 0.017 µM
- IC50 [12]: 0.017 µM

Structure (SMILES): CCCOc1c(OC)c(OC)cc2c1-c1ccc(OC)c(=O)cc1[C@@H](NC(C)=O)CC2
- IC50 [8]: 0.012 µM

Structure (SMILES): COCC(=O)N[C@H]1CCc2c(Cl)c(OC)c(OC)c(OC)c2-c2ccc(SC)c(=O)cc21
- IC50 [1]: 0.005 µM
- IC50 [2]: 0.005 µM
- IC50 [3]: 0.005 µM
- IC50 [4]: 0.005 µM
- IC50 [5]: 0.005 µM
- IC50 [6]: 0.005 µM

Structure (SMILES): COc1cc2c(c(OC)c1OC)-c1ccc(NCCCN(C)C)c(=O)cc1[C@@H](NC(C)=O)CC2
- IC50 [7]: > 10 µM

Structure (SMILES): CCNc1ccc2c(cc1=O)[C@@H](NC(C)=O)CCc1cc(OC)c(OC)c(OC)c1-2
- IC50 [7]: 0.029 µM

Structure (SMILES): COc1cc2c(c(OC)c1OC)-c1ccc(NCCOC(=O)CCC(=O)OCCCCCO[N+](=O)[O-])c(=O)cc1[C@@H](NC(C)=O)CC2
- IC50 [9]: 0.04 µM
- IC50 [10]: 0.02 µM
- IC50 [11]: 0.04 µM
- IC50 [12]: 0.04 µM

Structure (SMILES): COc1cc2c(c(O)c1OC)-c1ccc(OC)c(=O)cc1[C@@H](NC(C)=O)CC2
- IC50 [8]: 0.015 µM

Structure (SMILES): COc1c(Cl)c2c(c(OC)c1OC)-c1ccc(SC)c(=O)cc1[C@@H](NC(=O)OCCO)CC2
- IC50 [2]: 0.04 µM
- IC50 [3]: 0.04 µM
- IC50 [4]: 0.04 µM
- IC50 [5]: 0.04 µM
- IC50 [6]: 0.04 µM

Structure (SMILES): CCCOC(=O)N[C@H]1CCc2c(Cl)c(OC)c(OC)c(OC)c2-c2ccc(SC)c(=O)cc21
- IC50 [2]: 0.008 µM
- IC50 [3]: 0.008 µM
- IC50 [4]: 0.008 µM
- IC50 [5]: 0.008 µM
- IC50 [6]: 0.008 µM

Structure (SMILES): CCC(=O)N[C@H]1CCc2c(Cl)c(OC)c(OC)c(OC)c2-c2ccc(SC)c(=O)cc21
- IC50 [1]: 0.002 µM
- IC50 [2]: 0.002 µM
- IC50 [3]: 0.002 µM
- IC50 [4]: 0.002 µM
- IC50 [5]: 0.002 µM
- IC50 [6]: 0.002 µM

Structure (SMILES): CCOC(=O)N[C@H]1CCc2c(Cl)c(OC)c(OC)c(OC)c2-c2ccc(SC)c(=O)cc21
- IC50 [2]: 0.008 µM
- IC50 [3]: 0.008 µM
- IC50 [4]: 0.008 µM
- IC50 [5]: 0.008 µM
- IC50 [6]: 0.008 µM

Structure (SMILES): CCCCCCCCCC(=O)N[C@H]1CCc2c(Cl)c(OC)c(OC)c(OC)c2-c2ccc(SC)c(=O)cc21
- IC50 [1]: 0.078 µM
- IC50 [2]: 0.078 µM
- IC50 [3]: 0.078 µM
- IC50 [4]: 0.078 µM
- IC50 [5]: 0.078 µM
- IC50 [6]: 0.078 µM

Structure (SMILES): CNc1ccc2c(cc1=O)[C@@H](NC(C)=O)CCc1cc(OC)c(OC)c(OC)c1-2
- IC50 [7]: 0.029 µM

Structure (SMILES): COc1cc2c(c(OC)c1OC)-c1ccc(NCCOC(=O)CCC(=O)OCCCO[N+](=O)[O-])c(=O)cc1[C@@H](NC(C)=O)CC2
- IC50 [9]: 0.04 µM
- IC50 [10]: 0.02 µM
- IC50 [11]: 0.04 µM
- IC50 [12]: 0.04 µM

Structure (SMILES): CCN(CC)C(=O)N[C@H]1CCc2c(Cl)c(OC)c(OC)c(OC)c2-c2ccc(SC)c(=O)cc21
- IC50 [1]: 0.027 µM
- IC50 [2]: 0.027 µM
- IC50 [3]: 0.027 µM
- IC50 [4]: 0.027 µM
- IC50 [5]: 0.027 µM
- IC50 [6]: 0.027 µM

Structure (SMILES): C=COc1c(OC)c(OC)cc2c1-c1ccc(OC)c(=O)cc1[C@@H](NC(C)=O)CC2
- IC50 [8]: 0.012 µM

Structure (SMILES): COCCOc1c(OC)c(OC)cc2c1-c1ccc(OC)c(=O)cc1[C@@H](NC(C)=O)CC2
- IC50 [8]: 0.012 µM

Structure (SMILES): COc1cc2c(c(OC)c1OC)-c1ccc(NC(C)C)c(=O)cc1[C@@H](NC(C)=O)CC2
- IC50 [7]: 0.048 µM

Structure (SMILES): COc1c(Cl)c2c(c(OC)c1OC)-c1ccc(SC)c(=O)cc1[C@@H](NC(=O)CCCCl)CC2
- IC50 [1]: 0.01 µM
- IC50 [2]: 0.01 µM
- IC50 [3]: 0.01 µM
- IC50 [4]: 0.01 µM
- IC50 [5]: 0.01 µM
- IC50 [6]: 0.01 µM

Structure (SMILES): COc1cc2c(c(OCc3cccc(Cl)c3)c1OC)-c1ccc(OC)c(=O)cc1[C@@H](NC(C)=O)CC2
- IC50 [8]: 0.012 µM

Structure (SMILES): CCCCNc1ccc2c(cc1=O)[C@@H](NC(C)=O)CCc1cc(OC)c(OC)c(OC)c1-2
- IC50 [7]: 0.24 µM

Structure (SMILES): COc1c(Br)c2c(c(OC)c1OC)-c1ccc(SC)c(=O)cc1[C@@H](NC(C)=O)CC2
- IC50 [2]: 0.014 µM
- IC50 [6]: 0.135 µM

Structure (SMILES): COc1c(I)c2c(c(OC)c1OC)-c1ccc(SC)c(=O)cc1[C@@H](NC(C)=O)CC2
- IC50 [2]: 0.007 µM
- IC50 [3]: 0.017 µM
- IC50 [4]: 0.011 µM
- IC50 [5]: 0.115 µM
- IC50 [6]: 0.642 µM

Structure (SMILES): COc1c(F)c2c(c(OC)c1OC)-c1ccc(SC)c(=O)cc1[C@@H](NC(C)=O)CC2
- IC50 [2]: 0.021 µM
- IC50 [3]: 0.01 µM
- IC50 [4]: 0.011 µM
- IC50 [5]: 0.114 µM
- IC50 [6]: 0.398 µM

Structure (SMILES): COc1cc2c(c(OCc3ccccc3Cl)c1OC)-c1ccc(OC)c(=O)cc1[C@@H](NC(C)=O)CC2
- IC50 [8]: 0.012 µM

Structure (SMILES): COc1cc2c(c(OC(=O)C(C)C)c1OC)-c1ccc(OC)c(=O)cc1[C@@H](NC(C)=O)CC2
- IC50 [8]: 0.012 µM

Structure (SMILES): CCC(=O)Oc1c(OC)c(OC)cc2c1-c1ccc(OC)c(=O)cc1[C@@H](NC(C)=O)CC2
- IC50 [8]: 0.012 µM

Structure (SMILES): CCCCOC(=O)N[C@H]1CCc2c(Cl)c(OC)c(OC)c(OC)c2-c2ccc(SC)c(=O)cc21
- IC50 [2]: 0.02 µM
- IC50 [3]: 0.02 µM
- IC50 [4]: 0.02 µM
- IC50 [5]: 0.02 µM
- IC50 [6]: 0.02 µM

Structure (SMILES): COc1cc2c(c(OC)c1OC)-c1ccc(=N)c(O)cc1[C@@H](NC(C)=O)CC2
- IC50 [13]: 0.007 µM

Structure (SMILES): COc1c(Cl)c2c(c(OC)c1OC)-c1ccc(SC)c(=O)cc1[C@@H](NC(=O)OC(C)C)CC2
- IC50 [2]: 0.02 µM
- IC50 [3]: 0.02 µM
- IC50 [4]: 0.02 µM
- IC50 [5]: 0.02 µM
- IC50 [6]: 0.02 µM

Structure (SMILES): COC(=O)N[C@H]1CCc2c(Cl)c(OC)c(OC)c(OC)c2-c2ccc(SC)c(=O)cc21
- IC50 [2]: 0.011 µM
- IC50 [3]: 0.011 µM
- IC50 [4]: 0.011 µM
- IC50 [5]: 0.011 µM
- IC50 [6]: 0.011 µM

Structure (SMILES): COc1c(Cl)c2c(c(OC)c1OC)-c1ccc(SC)c(=O)cc1[C@@H](N)CC2
- IC50 [2]: 0.098 µM
- IC50 [3]: 0.098 µM
- IC50 [4]: 0.098 µM
- IC50 [5]: 0.098 µM
- IC50 [6]: 0.098 µM

Structure (SMILES): COc1cccc2c1C(=O)c1c(O)c3c(c(O)c1C2=O)C[C@@](O)(C(=O)CO)C[C@@H]3O[C@H]1C[C@H](N)[C@H](O)[C@H](C)O1 [DOXORUBICIN]
- IC50 [4]: 0.092 µM
- IC50 [5]: 0.092 µM
- IC50 [6]: 0.092 µM

Structure (SMILES): COc1cc2c(c(OC)c1OC)-c1ccc(NN(C)C)c(=O)cc1[C@@H](NC(C)=O)CC2
- IC50 [7]: 0.025 µM

Structure (SMILES): CCCNc1ccc2c(cc1=O)[C@@H](NC(C)=O)CCc1cc(OC)c(OC)c(OC)c1-2
- IC50 [7]: 0.036 µM

Structure (SMILES): COc1c(Cl)c2c(c(OC)c1OC)-c1ccc(SC)c(=O)cc1[C@@H](NC(=O)OCCOCCO)CC2
- IC50 [2]: 0.093 µM
- IC50 [3]: 0.093 µM
- IC50 [4]: 0.093 µM
- IC50 [5]: 0.093 µM
- IC50 [6]: 0.093 µM
